Assay results taken from publication PMC5121526, “Chemerin Elicits Potent Constrictor Actions via Chemokine‐Like Receptor 1 (CMKLR1), not G‐Protein‐Coupled Receptor 1 (GPR1), in Human and Rat Vasculature” (Journal of the American Heart Association: Cardiovascular …, 2016).
Ends that are not written are not given here.

What was measured:
Assay type in all cases: cell-based
human CMKLR1 [1] = target: T1, human CMKLR1 (Homo sapiens, UniProt Q99788); assay: β‐Arrestin recruitment at CMKLR1
T1 construct: host or cells: CHO-K1
T1 sequence (Q99788 1-373): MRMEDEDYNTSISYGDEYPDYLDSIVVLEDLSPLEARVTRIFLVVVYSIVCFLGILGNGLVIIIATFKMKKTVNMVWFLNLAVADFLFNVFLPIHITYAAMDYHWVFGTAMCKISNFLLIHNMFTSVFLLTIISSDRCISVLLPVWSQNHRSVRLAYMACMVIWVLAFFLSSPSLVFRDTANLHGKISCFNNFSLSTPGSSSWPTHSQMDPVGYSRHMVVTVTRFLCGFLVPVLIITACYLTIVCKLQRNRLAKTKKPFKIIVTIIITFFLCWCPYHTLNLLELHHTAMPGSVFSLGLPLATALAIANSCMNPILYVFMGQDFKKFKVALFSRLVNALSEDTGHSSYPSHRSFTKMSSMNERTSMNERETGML
Method: (§1) β‐Arrestin recruitment (CMKLR1 and GPR1) and cAMP assays (CMKLR1; DiscoverX, Fremont, CA) were carried out with CHO‐K1 cells expressing either human CMKLR1 or GPR1, according to the manufacturer's instructions. […] Data were subsequently normalized to the maximum response to C13 used as the reference agonists in each assay.

human GPR1 = target: T2, human GPR1 (Homo sapiens, UniProt P46091); assay: β‐Arrestin recruitment at GPR1
T2 construct: host or cells: CHO-K1
T2 sequence (P46091 1-355): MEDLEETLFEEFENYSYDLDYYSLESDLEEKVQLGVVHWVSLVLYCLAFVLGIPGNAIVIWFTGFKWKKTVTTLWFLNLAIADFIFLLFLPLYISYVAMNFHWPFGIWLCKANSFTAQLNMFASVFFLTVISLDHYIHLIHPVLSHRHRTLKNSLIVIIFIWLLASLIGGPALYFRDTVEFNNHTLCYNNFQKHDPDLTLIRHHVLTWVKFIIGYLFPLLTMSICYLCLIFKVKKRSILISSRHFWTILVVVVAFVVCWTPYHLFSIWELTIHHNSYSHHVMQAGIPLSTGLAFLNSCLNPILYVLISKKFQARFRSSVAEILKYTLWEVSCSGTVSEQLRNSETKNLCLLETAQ
Method: as §1

human CMKLR1 [2] = target: T1, human CMKLR1; assay: cAMP inhibition at CMKLR1; conditions: inhibition of forskolin‐evoked cAMP accumulation, CHO‐K1 cells, n: Chemerin 3, C9 4, C13 3, mean±SEM
Method: as §1

Row | Substance | pD2 (human CMKLR1 [1]; β‐arrestin recruitment, CHO‐K1 cells, CMKLR1, n: Chemerin 3, C9 3, C13 6, mean±SEM) | pD2 (human GPR1; β‐arrestin recruitment, CHO‐K1 cells, GPR1, n: Chemerin 3, C9 7, C13 9, mean±SEM) | pD2 (human CMKLR1 [2]) | EC50 (human CMKLR1 [1]) [nM] | Emax (human CMKLR1 [1]) [%] | EC50 (human GPR1) [nM] | Emax (human GPR1) [%] | EC50 (human CMKLR1 [2]; read-out: pD2 (converted)) [nM]
1 | Chemerin: Human recombinant chemerin(21–157) purchased from R&D Systems | 9.37±0.05 | 9.05±0.09 | 8.45±0.10 | – | – | – | – | –
2 | PHSFYFPGQFAFS [C13] | – | – | – | 70.8 | 94 ± 2 | 2.24 | 97 ± 3 | 0.759
